Results on two compounds are retold here after US20220098674A1, “METHODS AND COMPOSITIONS FOR SELECTING A CANCER TREATMENT IN A SUBJECT SUFFERING FROM CANCER” (INSERM (INSTITUT NATIONAL DE LA SANTÉ ET DR LA RECHERCH …, priority 2019, published 2022).

The subject of test [1] is RCC4+pVHL, RCC4 and RCC4 siVDAC1 cells. The test can be described thus: Sensitivity of RCC4 cell variants to sunitinib or 3BP treatment. Format: cell-based. On the procedure: RCC4/pVHL and 786-O/pVHL cells were grown in Dulbecco's Modified Eagle's Medium (DMEM) (Gibco-BRL) supplemented with 10% fetal bovine serum with penicillin G (50 U/ml) and streptomycin sulfate (50 μg/ml). ACHN and A498 RCC cell lines were purchased from the ATCC (Mar. 3, 2013). The RCC10 cell line was a kind gift from Dr. W. H. Kaelin (Dana-Farber Cancer Institute, Boston, Mass.). An INVIVO2 200 anaerobic workstation (Ruskinn Technology Biotrace International Plc) set at 1% oxygen, 94% nitrogen and 5% carbon dioxide was used for hypoxic conditions.
Cells (5000-10000) were plated on 60 mm dishes and incubated at 37° C., 5% CO2 for colony formation. After 10 days, colonies were fixed with 10% (v/v) methanol for 15 min and stained with 5% Giemsa (Sigma) for 30 min for colony visualization.
Sunitinib, a vascular endothelial growth factor receptor inhibitor is widely used for patients with metastatic RCC. RCC4+pVHL−, RCC4− and RCC4 siVDAC1− cells were treated with 1.0 and 1.5 μM of sunitinib (Data not shown). […] As RCC4 cells with VDAC1-ΔC present a higher glycolysis than RCC4+pVHL cells, we used 3 Bromopyruvate (3BP), an halogenated analogue of pyruvic acid that enters cells like a lactate via monocarboxylic acid transporters, to block glycolysis.

The subject of the next test is RCC4 cells. The test can be described thus: Cell death in RCC4 cells, siRNA to VDAC1 or AEP combined with 3BP. The format is cell-based. The following applies: 3BP combined with siRNA to VDAC1 or AEP. The text has this: In patients who progressively lose the primary cilium, this loss generated increased metabolism and greater resistance to cell death, promoting tumor growth. Since this loss was related to the presence of the cleaved form of VDAC1, the strategy would therefore be to prevent the cleavage of VDAC1 to restore the presence of the primary cilium. […] Indeed, we characterized a signature related to EMT that can explain the aggressive phenotype of the tumors of these patients. However, remodeling of metabolism was changed. Although cancer metabolism is a hallmark of cancer, it has been shown that aberrant metabolism supports EMT (47,48). […] It is therefore possible to envisage specific treatment for these groups: Temsirolimus (50) or Everolimus, specific inhibitors of mTOR (51) that block proliferation, in combination with small molecule inhibitors that prevent EMT such as EW-7197 or IN-1130, through a block in TGFβ1 and 2, have already been used in metastatic breast and lung cancer (52). By maintaining only one metabolic pathway, cancer cells with a GLI1+/IFT20+ signature offer a metabolic vulnerability that it would be wise to exploit. […] Finally, combination of an immune checkpoint inhibitor such as atezolizumab or nivolumab (an anti-PDL1 or PD1 inhibitor) alone or plus 3-bromopyruvate could be evaluated on PC+ patients with such reduced overall survival (FIG. 1). […]

For the next test, the system named is RCC4 siVDAC1 cells. The experiment in a line: Invasion assay (aggressiveness) of RCC4 siVDAC1 cells treated with 3BP. Format: cell-based. On the procedure: The invasion assay was performed using cell culture inserts with 8.0 μm pore transparent PET membrane coated with 10 μg/mL fibronectin. Inserts were coated with 2 μg/μL of Matrigel and incubated for 3 h at 37° C. in a CO2 incubator. Briefly, overnight serum-starved cells (8×10^4 cells) were seeded into the top chamber in medium without FBS, while medium with 10% FBS was present in the bottom chamber. The cells were incubated for 24 h. Media and remaining cells were removed from the top chamber with a cotton swab and washed twice with PBS. The bottom chamber was aspirated and washed twice with PBS. Inserts were fixed with 4% PFA. Invasiveness was assayed in triplicate for each condition, in at least three independent experiments. Cells that invaded the Matrigel and migrated through the filter and adhered to the lower surface were stained for 10 min with 0.5% crystal violet in 25% methanol. Inserts were rinsed in distilled water until no additional stain leached and were air-dried overnight. Crystal violet was extracted from the invading cells by adding 600 μl of 0.1M sodium citrate in 10% acetic acid. Absorbance was measured spectrophotometrically at 585 nm using Spectronic GENESYS 5 (Milton Roy, Rochester, N.Y.). Microarray experiments Microarray experiments were already described (22). […]

The next test has as its system ccRCC. The experiment in a line: Survival (PFS, OS) of sunitinib-treated ccRCC patients by GLI1/IFT20 primary cilium signature, clinical trial SUVEGIL. The format is in vivo, human. The conditions noted are these: ccRCC patients treated with sunitinib, no VDAC1-ΔC. On the procedure: FIG. 3. Patients with primary cilium signature present a higher immunogenicity compared to no primary cilium signature and a better response to immunotherapy. (A) Progression free-survival (PFS) and (B) Overall survival (OS) for the primary cilium signature was calculated from patients of the TCGA cohort C treated with sunitinib using the GLI1/IFT20 signature. Statistical significance (p-value) is indicated. The median survival is also indicated.
The Student's t-test was used to compare continuous variables and chi-square test, or Fisher's exact test (when the conditions for use of the χ2-test were not fulfilled), were used for categorical variables. To guarantee the independence of primary cilium as a prognostic factor, the multivariate analysis was performed using Cox regression adjusted to the stage and age. DFS was defined as the time from surgery to the appearance of metastasis. OS was defined as the time between surgery and the date of death from any cause, censoring those alive at last follow-up. The Kaplan-Meier method was used to produce survival curves and analyses of censored data were performed using Cox models. All analyses were performed using R software, version 3.2.2 (Vienna, Austria, https://www.r-project.org/).
We thus checked if PC+ patients with a GLI1+/IFT20+ signature and no VDAC1-ΔC are resistant or sensitive to sunitinib.

As for `O=C(O)C(=O)CBr` [3BP, 3-bromopyruvate], the “sensitivity to 3BP” value in test [1] (cells presenting no VDAC1-ΔC or less VDAC1, 10 and 25 μM) is on record as “highly sensitive”. The cell death result in the test on RCC4 cells is on record as “increased cell death”. The “aggressiveness (invasion) compared to control” value in the test with RCC4 siVDAC1 cells is given as “strongly decreased”.

Consider `CCN(CC)CCNC(=O)c1c(C)[nH]c(/C=C2\C(=O)Nc3ccc(F)cc32)c1C` [sunitinib, N-[2-(diethylamino)ethyl]-5-{[(3Z)-5-fluoro-2-oxo-2,3-dihydro-1H-indol-3-ylidene]methyl}-2,4-dimethyl-1H-pyrrole-3-carboxamide], for which the sensitivity to sunitinib entry in test [1] (RCC4+pVHL, RCC4 and RCC4 siVDAC1 cells (all these cells), 1.0 and 1.5 μM) is listed as “sensitive”; in test [1] (RCC4 cells expressing no VDAC1-ΔC), “less sensitive”. Also, the “sensitivity to sunitinib, relative” value in test [1] (cells with VDAC1-ΔC versus RCC4+pVHL cells or cells with no VDAC1-ΔC or less VDAC1, 1.0 and 1.5 μM) is given as “slightly more sensitive”. Further, the “survival (PFS and OS) of PC+ patients versus PC− groups” value in the test with ccRCC was “lower survival”.
